Laboratory results as given in US5552520A, “Therapeutic peptide derivatives” (Biomeasure, Inc., priority 1994, dated 1996).
Numbered stars: 1 amine (or outer) side, 2 acyl side, 3 side chain; on linkers, the order of the positions; unused ones are H or OH. Bridge positions count the residues as written; N and C are the ends. Square brackets hold non-standard residues; d marks the D form. Peptide text beside a SMILES is read from it. * marks the point of attachment. X1 = O=C1O[C@H]([C@@H](O)CO)C(OCC(=O)*)=C1OCC(O)CO; 2Nal = N[C@@H](Cc1ccc2ccccc2c1)C(=O)O; Suc = O=C(CCC(=O)[*:2])[*:1]; NHC(CH2OH)3 = OCC(CO)(CO)N*

What was measured:
[1] = test system: AR42J rat pancreas tumor cells; assay: Antiproliferative assay on AR42J cells; format: cell-based; conditions: growth curves, concentration dependence
[2] = test system: AR42J rat pancreas tumor cells; assay: Antiproliferative assay on AR42J cells; format: cell-based; conditions: Concentration 100 nM, AR42J Rat Pancreas Tumor Cells after 8 days
Procedure: The purified somatostatin analogs described above were also tested for activity against rapidly proliferating cells.
^1 Concentration 100 nM, AR42J Rat Pancreas Tumor Cells after 8 days.

somatostatin receptor = target: T1, somatostatin receptor (Rattus norvegicus, UniProt P30680); assay: Somatostatin binding assay: in vitro inhibition of binding of [125I-Tyr11]SRIF-14 to rat AR42J pancreas membranes; conditions: inhibition of [125I-Tyr11]SRIF-14 binding, read-out: IC50, in vitro binding affinity
T1 construct: SRIF-14 to rat AR42J pancreas membranes; endogenous in cells; host or cells: rat AR42J pancreatic cells (membrane preparation)

[3] = test system: stimulated growth hormone release; assay: Growth Hormone (GH) Inhibition Assay in rats (D-Ala2-GRF stimulated GH); format: in vivo, male Sprague Dawley rats; conditions: s.c., 25 μg/kg
Procedure: Groups of five male Sprague Dawley rats (each having a weight between 250-300 g) were injected s.c. with a somatostatin derivative or saline. Thirty minutes prior to the selected post-drug time periods shown in table II (2 hours, 4 hours, 6 hours, 8 hours), rats were anesthetized with Nembutal i.p. (50 mg/kg). Fifteen minutes following anesthesia, an aliquot of blood was withdrawn by cardiac puncture over heparin to measure basal GH. Additionally, a s.c. injection of D-Ala^2 -GRF (10 μg/kg) was given. Fifteen minutes later, blood was withdrawn to quantitate the stimulated GH, which was measured in plasma using a radioimmunoassay supplied by NIADDKD. The percentage of GH inhibition was calculated from differences obtained between basal and stimulated GH values.
The efficacy of D-Phe-c[Cys-Tyr-D-Trp-Lys-Thr-Cys]-Nal-NH2 (SEQ ID NO. 113) (BIM-23060) in inhibiting growth hormone in rats is compared with other somatostatin derivatives (BIM-23167, BIM-23179, and BIM-23181) of the invention.
Additional experiments were conducted on D-Phe-c[Cys-Tyr-D-Trp-Lys-Abu-Cys]-Thr-NH2, (SEQ ID NO. 112) a somatostatin analog, and BIM-23190, BIM-23195 and BIM-23197, to determine the ED50 (i.e., the concentration of each compound required to inhibit fifty percent of growth hormone release after a specified time) of the respective compound. Experiments were conducted at a dose range of between 25 μg/kg and 0.25 μg/kg.

T1 sequence (P30680 whole entry): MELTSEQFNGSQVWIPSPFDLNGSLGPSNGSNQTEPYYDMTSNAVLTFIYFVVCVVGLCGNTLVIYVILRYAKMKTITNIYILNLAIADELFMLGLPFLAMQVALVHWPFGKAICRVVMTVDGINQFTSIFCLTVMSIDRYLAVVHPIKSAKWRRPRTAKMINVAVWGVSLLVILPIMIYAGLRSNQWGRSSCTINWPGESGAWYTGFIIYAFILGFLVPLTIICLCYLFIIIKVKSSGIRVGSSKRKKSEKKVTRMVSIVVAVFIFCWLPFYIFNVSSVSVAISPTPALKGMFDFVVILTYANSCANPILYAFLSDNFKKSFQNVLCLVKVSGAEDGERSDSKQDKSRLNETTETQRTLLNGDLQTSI

IC50 (somatostatin receptor)	Compound	Inhibition of growth of AR42J cells (FIG. 1), in words [1]	Cell growth (percent of control) [2]	Inhibition of stimulated growth hormone release (percentile control) ([3]; 2 Hours)	Inhibition of stimulated growth hormone release (percentile control) ([3]; 4 Hours)	Inhibition of stimulated growth hormone release (percentile control) ([3]; 6 Hours)	Inhibition of stimulated growth hormone release (percentile control) ([3]; 8 Hours)
–	CC(C)[C@@H]1NC(=O)[C@H](CCCCN)NC(=O)[C@@H](Cc2c[nH]c3ccccc23)NC(=O)[C@H](Cc2ccc(O)cc2)NC(=O)[C@@H](NC(=O)[C@@H](Cc2ccc3ccccc3c2)NC(=O)CCCOC2=C(O)C(=O)O[C@@H]2[C@@H](O)CO)CSSC[C@@H](C(=O)N[C@H](C(N)=O)[C@@H](C)O)NC1=O [BIM-23118]	the more effective of the two compounds	61.0% of control	–	–	–	–
0.09 nM	C[C@@H](O)[C@@H]1NC(=O)[C@H](CCCCN)NC(=O)[C@@H](Cc2c[nH]c3ccccc23)NC(=O)[C@H](Cc2ccc(O)cc2)NC(=O)[C@@H](NC(=O)[C@@H](Cc2ccccc2)NC(=O)CCC(=O)NC(CO)(CO)CO)CSSC[C@@H](C(=O)N[C@@H](Cc2ccc3ccccc3c2)C(N)=O)NC1=O [BIM-23167, (HO-CH2)3 -C-NH-CO-(CH2)2 -CO-D-Phe-c[Cys-Tyr-D-Trp-Lys-Thr-Cys]-Nal-NH2] ({NHC(CH2OH)3-Suc}-[dF]CY[dW]KTC[2Nal]-NH2; disulfide 2-7)	–	60.2% of control	92.67 percentile control	79.54 percentile control	59.72 percentile control	50.14 percentile control
–	C[C@@H](O)[C@@H]1NC(=O)[C@H](CCCCN)NC(=O)[C@@H](Cc2c[nH]c3ccccc23)NC(=O)[C@H](Cc2ccc(O)cc2)NC(=O)[C@@H](NC(=O)[C@@H](Cc2ccccc2)NC(=O)COC2=C(OCC(O)CO)C(=O)O[C@@H]2[C@@H](O)CO)CSSC[C@@H](C(=O)N[C@@H](Cc2ccc3ccccc3c2)C(N)=O)NC1=O (some centres unmarked) [BIM-23181] (X1-[dF]CY[dW]KTC[2Nal]-NH2; disulfide 2-7)	–	69.1% of control	99.24 percentile control	77.07 percentile control	60.56 percentile control	56.12 percentile control
–	C[C@H](N)C(=O)NCC(=O)N[C@H]1CSSC[C@@H](C(=O)O)NC(=O)[C@H](CO)NC(=O)[C@H]([C@@H](C)O)NC(=O)[C@H](Cc2ccccc2)NC(=O)[C@H]([C@@H](C)O)NC(=O)[C@H](CCCCN)NC(=O)[C@H](Cc2c[nH]c3ccccc23)NC(=O)[C@H](Cc2ccccc2)NC(=O)[C@H](Cc2ccccc2)NC(=O)[C@H](CC(N)=O)NC(=O)[C@H](CCCCN)NC1=O [SRIF-14, reference compound]	–	91.3% of control	–	–	–	–
–	CSCC[C@H](NC(=O)[C@H](C)NC(=O)[C@@H]1CCCN1C(=O)[C@H](CC(N)=O)NC(=O)[C@H](CO)NC(=O)[C@H](CC(N)=O)NC(=O)[C@H](C)NC(=O)[C@@H](N)CO)C(=O)N[C@@H](C)C(=O)N1CCC[C@H]1C(=O)N[C@@H](CCCNC(=N)N)C(=O)N[C@@H](CCC(=O)O)C(=O)N[C@@H](CCCNC(=N)N)C(=O)N[C@@H](CCCCN)C(=O)N[C@@H](C)C(=O)NCC(=O)N[C@H]1CSSC[C@@H](C(=O)O)NC(=O)[C@H](CO)NC(=O)[C@H]([C@@H](C)O)NC(=O)[C@H](Cc2ccccc2)NC(=O)[C@H]([C@@H](C)O)NC(=O)[C@H](CCCCN)NC(=O)[C@H](Cc2c[nH]c3ccccc23)NC(=O)[C@H](Cc2ccccc2)NC(=O)[C@H](Cc2ccccc2)NC(=O)[C@H](CC(N)=O)NC(=O)[C@H](CCCCN)NC1=O [SRIF-28, reference compound]	–	98.0% of control	–	–	–	–
–	D-Nal-c[Cys-Tyr-D-Trp-Lys-Val-Cys]-Thr-NH2 [BIM-23014C, reference compound]	inhibit the growth of AR42J rat pancreas tumor cells in a concentration-dependent fashion	74.1% of control	–	–	–	–
